# According to patent publication US20240376097A1, “BCL-2 Inhibitor” (BeiGene Ltd., priority 2020, published 2024):
# Like-named read-outs stand apart in the source and are kept apart here.
# Columns and labels:
# [1] = tested on: BCL-2 G101V knock-in cell line H96 (derive from RS4;11); experiment: Bcl 2-G101V Knock-In RS4;11 Cell Proliferation Assay; type: cell-based; details: Homo sapiens, RS4;11 Bcl-2 G101V knock-in clone H96, 48 hrs, CellTiter-GLO, read-out: Cellular proliferation assay (IC50, nM) RS4
# Procedure, shortened: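 CellTiter-Glo luminescence after 48 h, 37 °C compound treatment (10 concentrations, maximum 1 μM or 10 μM) gave mean IC50 values. Cells were 50,000 per well of H96, a BCL2-G101V knock-in single clone derived from RS4;11 by Cas9 editing.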
# [2] = molecular target: Recombinant human Bcl-2 protein (Homo sapiens (Human), UniProt P10415); experiment: Bcl-2 TR-FRET Assay; type: binding
# Procedure, shortened: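 In pH 7.5 phosphate buffer containing NaCl, EDTA, Tween-20 and BSA, 0.05 nM Bcl-2 saw serially diluted compound for 0.5 h before 0.5 nM FITC-Bak peptide was added. Signal ratio at 520/490 nm after 1 h yielded IC50.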
# [3] = molecular target: recombinant human Bcl-2 D103Y protein (Homo sapiens (Human), UniProt P10415, D103Y); experiment: Bcl-2-D103Y Biochemical Assay (TR-FRET); type: binding; details: for IC50: TR-FRET, FITC labeled Bak peptide; for Ratio of Bcl-2 D103Y/Bcl-2 WT: ratio of IC50
# Procedure, shortened: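 Compounds titrated against the Bcl-2 D103Y–ligand interaction; inhibition derived from the TR-FRET emission ratio 490 nm/520 nm after 337 nm excitation. Four-parameter logistic fitting gave IC50.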
# [4] = molecular target: recombinant human Bcl-2-G101V protein (Homo sapiens (Human), UniProt P10415, G101V); experiment: Bcl-2-G101V TR-FRET Assay; type: binding; details: Bcl-2 G101V mutant, TR-FRET; read-out: Biochemical assay (IC50, nM) Bcl-2 G101V
# Procedure, shortened: (§1)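 TR-FRET read at excitation 337 nm with emission at 490 nm and 520 nm. Inhibition of Bcl-2-G101V binding to its ligand across increasing compound concentrations was calculated from the 490/520 nm fluorescence ratio, and IC50 values came from four-parameter logistic fits.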
# [5] = tested on: recombinant human Bcl-2-G101V protein; experiment: Bcl-2-G101V TR-FRET Assay; type: binding; details: ratio of biochemical IC50 Bcl-2 G101V / Bcl-2 WT
# Procedure, shortened: as §1
# [6] = tested on: RS4;11 (BCL-2 dependent acute lymphoblastic leukemia cell line); experiment: RS4;11 Cell Proliferation Assay; type: cell-based; details: Homo sapiens, RS4-11, RS4;11 cells, read-out: Cellular proliferation assay (IC50, nM) RS4
# Procedure, shortened: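 Viability measured via CellTiter-Glo luminescence after a 48 h, 37 °C exposure to compounds (10 points, highest 1 μM). Seeding was 50,000 RS4;11 cells per well in 10% FBS RPMI-1640; IC50 given as mean.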
# [7] = Bcl-2 wild type, TR-FRET, read-out: Biochemical assay (IC50, nM) Bcl-2 WT
# [8] = wild type Bcl-2, unit inferred, read-out: Bcl-2 WT
SMILES,IC50 [1] [nM],"IC50 [2, 7] [nM]","IC50 [2, 8] [nM]",IC50 [3] [nM],Ratio of Bcl-2 D103Y/Bcl-2 WT [3],IC50 [4] [nM],Ratio of Bcl-2 G101V/WT [5],IC50 [6] [nM]
"CC(C)c1ccccc1C1CN(Cc2ccc3c(c2)OCCO3)CCN1C1CC2(CCN(c3ccc(C(=O)NS(=O)(=O)c4ccc(NC[C@H]5CC[C@](C)(O)CC5)c([N+](=O)[O-])c4)c(Oc4cnc5[nH]ccc5c4)c3)CC2)C1 (some centres unmarked) [Example 78, 2-((1H-pyrrolo[2,3-b]pyridin-5-yl)oxy)-4-(2-(4-((2,3-dihydrobenzo[b] [1,4]dioxin-6-yl)methyl)-2-(2-isopropylphenyl)piperazin-1-yl)-7-azaspiro[3.5]nonan-7-yl)-N-((4-((((1r,4r)-4-hydroxy-4-methylcyclohexyl)methyl)amino)-3-nitrophenyl)sulfonyl)benzamide]",2.6,0.21,0.21,0.62,2.9,0.98,4.6,0.42
"COc1ccc(CN2CCN(C3CC4(CCN(c5ccc(C(=O)NS(=O)(=O)c6ccc(NC[C@H]7CC[C@](C)(O)CC7)c([N+](=O)[O-])c6)c(Oc6cnc7[nH]ccc7c6)c5)CC4)C3)[C@H](c3ccccc3C(C)C)C2)c(OC)c1 (single isomer, unassigned) [Example 48a, 2-((1H-pyrrolo[2,3-b]pyridin-5-yl)oxy)-4-(2-((R or S)-4-(2,4-dimethoxybenzyl)-2-(2-isopropylphenyl)piperazin-1-yl)-7-azaspiro[3.5]nonan-7-yl)-N-((4-((((1r,4r)-4-hydroxy-4-methylcyclohexyl)methyl)amino)-3-nitrophenyl)sulfonyl)benzamide]",0.81,0.045,0.045,0.1,2.3,0.21,4.6,0.16
"COc1cc(CN2CCN(C3CC4(C3)CN(c3ccc(C(=O)NS(=O)(=O)c5ccc(NC[C@H]6CC[C@](C)(O)CC6)c([N+](=O)[O-])c5)c(Oc5cnc6[nH]ccc6c5)c3)C4)[C@H](c3ccccc3C(C)C)C2)cnc1OC [Example 242, 2-((1H-pyrrolo[2,3-b]pyridin-5-yl)oxy)-4-(6-((R)-4-((5,6-dimethoxypyridin-3-yl)methyl)-2-(2-isopropylphenyl)piperazin-1-yl)-2-azaspiro[3.3]heptan-2-yl)-N-((4-((((1r,4r)-4-hydroxy-4-methylcyclohexyl)methyl)amino)-3-nitrophenyl)sulfonyl)benzamide]",0.28,0.03,0.03,0.033,1.1,0.077,2.6,0.17
"COc1ccc(CN2CCN(C3CC4(CCN(c5ccc(C(=O)NS(=O)(=O)c6ccc(NC[C@H]7CC[C@](C)(O)CC7)c([N+](=O)[O-])c6)c(Oc6cnc7[nH]cc(Cl)c7c6)c5)CC4)C3)[C@H](c3ccccc3C(C)C)C2)cc1 [Example 123, 2-((3-chloro-1H-pyrrolo[2,3-b]pyridin-5-yl)oxy)-N-((4-((((1r,4r)-4-hydroxy-4-methylcyclohexyl)methyl)amino)-3-nitrophenyl)sulfonyl)-4-(2-((R)-2-(2-isopropylphenyl)-4-(4-methoxybenzyl)piperazin-1-yl)-7-azaspiro[3.5]nonan-7-yl) benzamide]",1.1,0.54,0.54,0.71,1.3,1.8,3.3,0.25
"Cc1ccc(CN2CCN(C3CC4(CCN(c5ccc(C(=O)NS(=O)(=O)c6ccc(NC[C@H]7CC[C@](C)(O)CC7)c([N+](=O)[O-])c6)c(Oc6cnc7[nH]ccc7c6)c5)CC4)C3)C(c3ccccc3C(C)C)C2)cc1 (some centres unmarked) [Example 30, 2-((1H-pyrrolo[2,3-b]pyridin-5-yl)oxy)-N-((4-((((1r,4r)-4-hydroxy-4-methylcyclohexyl)methyl)amino)-3-nitrophenyl)sulfonyl)-4-(2-(2-(2-isopropylphenyl)-4-(4-methylbenzyl)piperazin-1-yl)-7-azaspiro[3.5]nonan-7-yl) benzamide]",3.48,0.27,0.27,0.42,1.6,1.1,4.1,0.53
"[2H]C([2H])([2H])Oc1cc(CN2CCN(C3CC4(C3)CN(c3ccc(C(=O)NS(=O)(=O)c5ccc(NC[C@H]6CC[C@](C)(O)CC6)c([N+](=O)[O-])c5)c(Oc5cnc6[nH]cc(F)c6c5)c3)C4)[C@H](c3ccccc3C(C)C)C2)cc2c1OCC2(C)C [Example 326, 2-((3-fluoro-1H-pyrrolo[2,3-b]pyridin-5-yl)oxy)-N-((4-((((1r,4r)-4-hydroxy-4-methylcyclohexyl)methyl)amino)-3-nitrophenyl)sulfonyl)-4-(6-((R)-2-(2-isopropylphenyl)-4-((7-(methoxy-d3)-3,3-dimethyl-2,3-dihydrobenzofuran-5-yl)methyl)piperazin-1-yl)-2-azaspiro[3.3]heptan-2-yl)benzamide]",0.34,0.17,0.17,0.25,1.5,0.49,3,0.19
CC(C)c1ccccc1C1CN(Cc2ccc(F)cc2F)CCN1C1CC2(CCN(c3ccc(C(=O)NS(=O)(=O)c4ccc(NC[C@H]5CC[C@](C)(O)CC5)c([N+](=O)[O-])c4)c(Oc4cnc5[nH]ccc5c4)c3)CC2)C1 (some centres unmarked) [Example 50],7.9,0.18,0.18,1.2,6.6,1.2,6.7,0.8
"COc1cc(CN2CCN(C3CC4(CCN(c5ccc(C(=O)NS(=O)(=O)c6ccc(NC[C@H]7CC[C@](C)(O)CC7)c([N+](=O)[O-])c6)c(Oc6cnc7[nH]cc(F)c7c6)c5)CC4)C3)[C@H](c3ccccc3C(C)C)C2)ccc1C1CC1 [Example 258, 4-(2-((R)-4-(4-cyclopropyl-3-methoxybenzyl)-2-(2-isopropylphenyl)piperazin-1-yl)-7-azaspiro[3.5]nonan-7-yl)-2-((3-fluoro-1H-pyrrolo[2,3-b]pyridin-5-yl)oxy)-N-((4-((((1r,4r)-4-hydroxy-4-methylcyclohexyl)methyl)amino)-3-nitrophenyl)sulfonyl) benzamide]",0.28,0.85,0.85,1.5,1.8,1.75,2.1,0.11
"COc1ccc(CN2CCN(C3CC4(C3)CN(c3ccc(C(=O)NS(=O)(=O)c5ccc(NC[C@H]6CC[C@](C)(O)CC6)c([N+](=O)[O-])c5)c(Oc5cnc6[nH]cc(F)c6c5)c3)C4)[C@H](c3ccccc3C(C)C)C2)nc1 [Example 241, 2-((3-fluoro-1H-pyrrolo[2,3-b]pyridin-5-yl)oxy)-N-((4-((((1r,4r)-4-hydroxy-4-methylcyclohexyl)methyl)amino)-3-nitrophenyl)sulfonyl)-4-(6-((R)-2-(2-isopropylphenyl)-4-((5-methoxypyridin-2-yl)methyl)piperazin-1-yl)-2-azaspiro[3.3]heptan-2-yl)benzamide]",0.32,0.035,0.035,0.047,1.3,0.096,2.7,0.15
COc1cc(CN2CCN(C3CC4(CCN(c5ccc(C(=O)NS(=O)(=O)c6ccc(NC[C@H]7CC[C@](C)(O)CC7)c([N+](=O)[O-])c6)c(Oc6cnc7[nH]cc(F)c7c6)c5)CC4)C3)[C@H](c3ccccc3C(C)C)C2)cc2c1OCC2 [Example 303],0.52,0.11,0.11,0.16,1.4,0.26,2.3,0.3
